Measured values from patent US5852011A, “Benzimidazole derivatives” (Mitsui Chemicals, Inc., priority 1994, dated 1998).
Structures can show the parent of a compound that is named as a salt. Where two headings read alike, the source gives them in different places.

Tested on: mouse B16 melanoma cells
Assay: In vitro inhibition of proliferation of tumored cells, mouse B16 melanoma (Test 2)
Assay type: cell-based
Details: for IC50: Mus musculus, B16, 72 h, read-out: 50% Inhibition
Description: A description will next be made of antitumor activities of these compounds. Their antitumor activities were determined by measuring their in vitro inhibition of proliferation of tumored cells. Namely, mouse B16 melanoma cells were spread over a 96-well culture plate. One day later, each drug was applied. The melanoma cells were then incubated for 3 days in 5% CO2 at 37° C. Following the method reported in Cancer Res., 48, 589-601(1988), the concentration of the drug required to induce 50% inhibition on the proliferation was determined. As a comparative example, the results obtained from the application of distamycin are also shown.

[1] = 3 days in 5% CO2 at 37° C., 96-well plate

SMILES	50% Inhibition [1] [µg/mL]	also measured
Cn1cc(NC(=O)CC[S+](C)C)cc1-c1nc2cc(C(=O)Nc3ccc(N(CCCl)CCCl)c(F)c3)ccc2[nH]1 [1076 (Cl' salt), 2-[N-[1-Methyl-2-[5-[N-[3-fluoro-4-[N,N-bis(2-chloroethyl)amino]phenyl]]carbamoyl]-1H-benzimidazol-2-ylpyrrol-4-yl]carbamoylethyl-dimethylsulfonium chloride]	0.45	
Cn1cc(NC(=O)CCc2ccc(N(CCCl)CCCl)cc2)cc1-c1nc2cc(C(=O)NCCC(=N)N)ccc2[nH]1 [Compound 3, 1H-2-[4-[3-[4-[N,N-Bis(2-chloroethyl)amino]phenyl]propionylamino]-1-methylpyrrol-2-yl]benzimidazole-5-[N-(2-amidinoethyl)]carboxamide hydrochloride]	0.019	
Cn1cc(NC(=O)c2ccc(CN(CCCl)CCCl)cc2)cc1-c1nc2cc(C(=O)NCCC(=N)N)ccc2[nH]1 [Compound 14, 1H-2-[4-[4-[N,N-Bis(2-chloroethyl)aminomethyl]benzoylamino]-1-methylpyrrol-2-yl]benzimidazole-5-(N-(2-amidinoethyl)]carboxamide hydrochloride]	0.57	
Cn1cc(NC(=O)c2cccc(N(CCCl)CCCl)c2)cc1-c1nc2cc(C(=O)NCCC(=N)N)ccc2[nH]1 [Compound 15, 1H-2-[4-[3-[N,N-bis(2-chloroethyl)amino]benzoylamino]-1-methylpyrrol-2-yl]benzimidazole-5-[N-(2-amidinoethyl)]carboxamide hydrochloride]	0.057	
Cn1cc(NC(=O)CCCCCBr)cc1-c1nc2cc(C(=O)NCCC(=N)N)ccc2[nH]1 [Compound 16, hydrochloride]		IC50 [1]: 0.6 µg/mL
Cn1cc(NC(=O)c2ccc(N(CCCl)CCCl)cc2)cc1-c1nc2cc(C(=O)NCCN)ccc2[nH]1 [Compound 129, 1H-2-[4-[4-[N,N-Bis(2-chloroethyl)amino]benzoylamino]-1-methylpyrrol-2-yl]benzimidazole-5-[N-(2-aminoethyl)]carboxamide hydrochloride]	0.18	
Cn1cc(NC(=O)c2ccc(N(CCCl)CCCl)cc2)cc1-c1nc2cc(C(=O)NCc3cccnc3)ccc2[nH]1 [Compound 223, 1H-2-[4-[4-[N,N-Bis(2-chloroethyl)amino]benzoylamino]-1-methylpyrrol-2-yl]benzimidazole-5-[N-(3-picolyl)]carboxamide hydrochloride]	1.1	
Cn1cc(NC(=O)c2ccc(N(CCCl)CCCl)cc2)cc1-c1nc2cc(C(=O)NCc3ccc[n+](C)c3)ccc2[nH]1 [Compound 247, 3-[[1H-2-[4-[4-[N,N-Bis(2-chloroethyl)amino]-benzoylamino]-1-methylpyrrol-2-yl]benzimidazole-5-carboxamido]methyl]-1-methylpyridinium chloride]	2.6	
Cn1cc(NC(=O)c2ccc(N(CCBr)CCBr)cc2)cc1-c1nc2cc(C(=O)NCCC(=N)N)ccc2[nH]1 [Compound 260, 1H-2-[4-[4-[N,N-Bis(2-bromoethyl)amino]benzoylamino]-1-methylpyrrol-2-yl]benzimidazole-5-[N-(2-amidinoethyl)]carboxamide hydrochloride]	0.034	
Cn1cc(NC(=O)c2ccccc2)cc1-c1nc2cc(C(=O)NCCC(=N)N)ccc2[nH]1 [Compound 326, 1H-2-(4-Benzoylamino-1-methylpyrrol-2-yl)benzimidazole-5-[N-(2-amidinoethyl)]carboxamide hydrochloride]		IC50 [1]: 12 µg/mL
CCCCNC(=O)c1ccc2[nH]c(-c3cc(NC(=O)c4ccc(N(CCCl)CCCl)cc4)cn3C)nc2c1 [Compound 336, 1H-2-[4-[4-[N,N-Bis(2-chloroethyl)amino]benzoylamino]-1-methylpyrrol-2-yl]benzimidazole-5-(N-butyl)carboxamide]	0.24	
N=C(N)CCNC(=O)c1ccc2[nH]c(-c3csc(NC(=O)CCCc4ccc(N(CCCl)CCCl)cc4)c3)nc2c1 [Compound 424, 1H-2-[2-[4-[4-[N,N-Bis(2-chloroethyl)amino]phenyl]butyrylamino]thiophen-4-yl]benzimidazole-5-[N-(2-amidinoethyl)]carboxamide hydrochloride]	0.08	
N=C(N)CCNC(=O)c1ccc2[nH]c(-c3csc(NC(=O)c4ccccc4)c3)nc2c1 [Compound 438, 1H-2-(2-Benzoylaminothiophen-4-yl)benzimidazole-5-[N-(2-amidinoethyl)]carboxamide hydrochloride]		IC50 [1]: 42.8 µg/mL
Cn1cc(NC(=O)CNC(=N)N)cc1-c1nc2cc(C(=O)NCCCc3ccc(N(CCCl)CCCl)cc3)ccc2[nH]1 [Compound 1004, 1H-2-[4-(2-Guanidinoacetylamino)-1-methylpyrrol-2-yl]benzimidazole-5-[N-[3-[4-[N,N-bis(2-chloroethyl)amino]phenyl]propyl]]carboxamide hydrochloride]	0.047	
CN(C)CCNC(=O)c1cc(N(CCCl)CCCl)ccc1NC(=O)c1ccc2[nH]c(-c3cc(NC(=O)CNC(=N)N)cn3C)nc2c1 [Compound 1042, 1H-2-[1-Methyl-4-(guanidinoacetylamino)pyrrol-2-yl]benzimidazole-5-[N-[2-[N-[(N,N-dimethylamino)ethyl]carboxamido]-4-[N,N-bis(2-chloroethyl)amino]phenyl]]carboxamide dihydrochloride]	3.49	
Cn1cc(NC(=O)CNC(=N)N)cc1-c1nc2cc(C(=O)Nc3cccc(N(CCCl)CCCl)c3)ccc2[nH]1 [Compound 1047, 1H-2-[1-Methyl-4-(guanidinoacetylamino)pyrrol-2-yl]benzimidazole-5-[N-[3-[N,N-bis(2-chloroethyl)amino]phenyl]]carboxamide dihydrochloride]	0.0946	
CCN(CCCl)c1ccc(NC(=O)c2ccc3[nH]c(-c4cc(NC(=O)CNC(=N)N)cn4C)nc3c2)cc1 [Compound 1048, 1H-2-[1-Methyl-4-(2-guanidinoacetylamino)pyrrol-2-yl]benzimidazol-5-[N-[4-[N-ethyl,N-(2-chloroethyl)amino]phenyl]]carboxamide dihydrochloride]		IC50: 5.58 µg/mL
CCN(CCCl)c1cccc(NC(=O)c2ccc3[nH]c(-c4cc(NC(=O)CNC(=N)N)cn4C)nc3c2)c1 [Compound 1049, 1H-2-[1-Methyl-4-(guanidinoacetylamino)pyrrol-2-yl]benzimidazol-5-[N-[3-[N-ethyl,N-(2-chloroethyl)amino]phenyl]]carboxamide hydrochloride]		IC50: 0.274 µg/mL
Cn1cc(NC(=O)CC[S+](C)C)cc1-c1nc2cc(C(=O)Nc3ccc(N(CCCl)CCCl)c(Cl)c3)ccc2[nH]1 [Compound 1072, 2-[N-[1-Methyl-2-[5-[N-[3-chloro-4-[N,N-bis(2-chloroethyl)amino]phenyl]]carbamoyl]-1H-benzimidazol-2-yl]pyrrol-4-yl]carbamoylethyl-dimethylsulfonium chloride]	0.51	
Cn1cc(NC(=O)CC[S+](C)C)cc1-c1nc2cc(C(=O)Nc3ccc(N(CCCl)CCCl)c(C(F)(F)F)c3)ccc2[nH]1 [Compound 1077, 2-[N-[1-Methyl-2-[5-[N-[3-trifluoromethyl-4-[N,N-bis(2-chloroethyl)amino]phenyl]]carbamoyl]-1H-benzimidazol-2-yl]pyrrol-4-yl]carbamoylethyl-dimethylsulfonium chloride]	0.29	
Cc1cc(NC(=O)c2ccc3[nH]c(-c4cc(NC(=O)CCCN(C)C)cn4C)nc3c2)ccc1N(CCCl)CCCl [Compound 1260, 1H-2-[1-Methyl-4-[4-(N,N-dimethylamino)butyrylamino]pyrrol-2-yl]benzimidazole-5-[N-[3-methyl-4-[N,N-bis(2-chloroethyl)amino]phenyl]]carboxamide dihydrochloride]	3.1	
Cn1cc(NC(=O)c2ccc[nH]2)cc1-c1nc2cc(C(=O)Nc3ccc(N(CCCl)CCCl)cc3)ccc2[nH]1 [Compound 1480, 1H-2-[1-Methyl-4-(2-pyrrolcarboxamido)pyrrol-2-yl]benzimidazole-5-[N-[4-[N,N-bis(2-chloroethyl)amino]phenyl]]carboxamide hydrochloride]	0.16	
Cn1cc(NC(=O)CCCN)cc1-c1nc2cc(C(=O)Nc3ccc(N(CCCl)CCCl)cc3)ccc2[nH]1 [Compound 1488, 1H-2-[4-(4-aminobuturylamino)-1-methylpyrrol-2-yl]benzimidazole-5-[N-[4-[N,N-bis(2-chloroethyl)amino]phenyl]]carboxamide]	2.85	
CSCCC(=O)Nc1cc(-c2nc3cc(C(=O)Nc4ccc(N(CCCl)CCCl)cc4)ccc3[nH]2)n(C)c1 [Compound 1520, 1H-2-[1-Methyl-4-[3-(methylthio)propionylamino]pyrrol-2-yl]benzimidazole-5-[N-[4-[N,N-bis(2-chloroethyl)amino]phenyl]]carboxamide]	0.33	
CSCCC(=O)Nc1cc(-c2nc3cc(C(=O)Nc4ccc(N(CCCl)CCCl)c(C)c4)ccc3[nH]2)n(C)c1 [Compound 1524, 1H-2-[1-Methyl-4-[3-(methylthio)propionylamino]pyrrol-2-yl]benzimidazole-5-[N-[3-methyl-4-[N,N-bis(2-chloroethyl)amino]phenyl]]carboxamide]	0.6	
